# Experimental data as given in US11149052B2, “2′3′-cyclic dinucleotides” (Institute of Organic Chemistry and Biochemistry, ASCR, V.V.I, priority 2018, dated 2021).
# Where two headings read alike, the source gives them in different places.
# What was measured:
# [1] = molecular target: human wild type STING (WT STING) (Homo sapiens, UniProt Q86WV6, H232R); test: Digitonin assay using 293T wtSTING-FL reporter cells (ISRE firefly luciferase reporter); assay type: cell-based; conditions: 293T wtSTING-FL cells; 30 min in Digitonin buffer, then 5 hours; luciferase read-out; 8-point dose-response curve; read-out: Digitonin assay EC50 (μmol · l^−1) WT STING
# Sequence of human wild type STING (WT STING) (Q86WV6 whole entry H232R): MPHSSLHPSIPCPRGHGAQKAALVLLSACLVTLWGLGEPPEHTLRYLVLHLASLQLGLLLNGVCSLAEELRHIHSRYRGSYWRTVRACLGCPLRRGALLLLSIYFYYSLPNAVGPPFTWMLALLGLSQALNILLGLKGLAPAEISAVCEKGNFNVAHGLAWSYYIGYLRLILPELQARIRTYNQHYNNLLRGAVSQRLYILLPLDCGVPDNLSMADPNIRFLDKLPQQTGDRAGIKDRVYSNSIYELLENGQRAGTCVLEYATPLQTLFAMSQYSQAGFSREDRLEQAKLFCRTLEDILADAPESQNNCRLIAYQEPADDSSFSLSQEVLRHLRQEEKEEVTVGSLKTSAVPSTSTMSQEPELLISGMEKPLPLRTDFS
# Description: Two complementary oligonucleotides of the sequence […] […] […] […] […] The oligonucleotides were mixed in equal molar amounts, hybridized, and cleaved by restriction endonucleases HindIII (cat. #. R0104S, NEB, Ipswich, USA) and BglII (cat. #R0144S, NEB, Ipswich, USA). Ultimately, they were ligated into plasmid pGL4.27 (cat. #E6651, Promega, Madison, USA) linearized with the same enzymes. As result the sequence with four ISRE sites was placed upstream of the minimum promoter of firefly luciferase reporter gene.
# After 5 minutes incubation at room temperature (RT), 250 μL of the mixture was added dropwise to the cells in one well.
# Transfected cells were seeded onto poly-D-lysine coated six well plates at density 50,000 cells per 1 cm^2 in DMEM medium with high glucose containing 10% heat inactivated FBS, 30 μg/mL blasticidin (cat. #ant-bl-05, InvivoGen, San Diego, USA), 0.06 mg/ml Penicillin G and 0.1 mg/ml Streptomycin Sulfate (both cat. #. L0018, Biowest, Riverside, USA). The medium was replenished every 3-4 days until visible colonies of cells resistant to blasticidin were formed.
# Blasticidin resistant cells stably expressing WT STING were further transfected with […] plasmid following the same procedure as described above. […] Homogeneous culture of stably double transfected cells was prepared by limiting dilution of cells in 96 well plates and wells with cells were selected that originated from a single cell.
# The medium was removed next day and three fold serial dilutions of compounds in Digitonin buffer containing 50 mmol·l^−1 HEPES (cat. #H3375, Sigma Aldrich, Czech Republic) pH 7.0, 100 mmol·l^−1 KCl, 3 mmol·l^−1 MgCl2, 0.1 mmol·l^−1 DTT (cat. #D0632, Sigma Aldrich, Czech Republic), 85 mmol·l^−1 Sucrose (cat. #S7903, Sigma Aldrich, Czech Republic), 0.2% BSA (cat. #A2153, Sigma Aldrich, Czech Republic), 1 mmol·l^−1 ATP (cat. #A1852, Sigma Aldrich, Czech Republic), 0.1 mmol·l^−1 GTP (cat. #G8877, Sigma Aldrich, Czech Republic), and 10 μg/mL Digitonin A (cat. #D141, Sigma Aldrich, Czech Republic) were added to the cells. The buffer was removed after 30 minutes incubation at 37° C. with 5% CO2, the cells were washed once with 100 μl of cultivation medium, and 100 IA of medium was added to each well. The plates with cells were incubated for 5 hours at 37° C. with 5% CO2, 50 μl of the medium was removed and 30 μl of ONE-Glo™ Luciferase Assay System reagent (cat. #E6120, Promega, Madison, USA) was added to each well. Luminesce was read on Synergy H1 (Biotek, Winooski, USA).
# [2] = molecular target: T1, WT STING (truncated human WT STING protein) (Homo sapiens, UniProt Q86WV6, H232R); test: Differential Scanning Fluorimetry with WT STING; assay type: binding; conditions: read-out: DSF ΔTm (° C.) WT STING
# T1 construct: truncated human WT STING or AQ STING (amino acid residues 140-343); 8xHis (N, cleaved yes); SUMO (N, cleaved yes); made in house; host or cells: E. coli Rosetta-gami B (DE3)
# T1 sequence (Q86WV6 140-343 H232R): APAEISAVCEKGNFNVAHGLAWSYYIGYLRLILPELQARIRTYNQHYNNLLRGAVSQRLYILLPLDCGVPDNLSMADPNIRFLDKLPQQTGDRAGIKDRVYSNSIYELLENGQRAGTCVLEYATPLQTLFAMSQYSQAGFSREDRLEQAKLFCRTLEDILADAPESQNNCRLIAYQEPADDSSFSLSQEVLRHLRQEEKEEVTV
# Description: (§1) Purified PCR products were cleaved with restriction enzymes BamHI (cat. #R0136S, NEB, Ipswich, USA) and NotI (cat. #R0189S, NEB, Ipswich, USA) and cloned into the pSUMO vector linearized with the identical enzymes.
# (§2) DNase I (cat. #D5025, Sigma Aldrich, Czech Republic) and RNase A (cat. #R6513, Sigma Aldrich, Czech Republic) were added (final concentration […]) together with MgCl2 (final concentration 5 mmol·l^−1) to the homogenate and bacteria were lysed using French Press G-M™ High-Pressure Cell Press Homogenizer (1500 psi, 3 cycles). […] The resin was poured into a chromatography column, washed with 50 ml buffer A (50 mmol·l^−1 TrisCl (pH 8.0), 800 mmol·l^−1 NaCl, 3 mmol·l^−1β-mercaptoethanol; 10% glycerol; 20 mmol·l^−1 imidazole) and 8-His-SUMO tagged STING proteins were eluted with 15 ml buffer A containing 300 mmol·l^−1 imidazole. […] Proteins were concentrated with Amicon® Ultra-15 10 K device (cat. #UFC901008, Merck Millipore, Billerica, USA) and flash frozen in liquid N2.
# (§3) Differential Scanning Fluorimetry with WT STING and AQ STING
# (§4) 20 μL solutions of the reaction mixtures were pipetted in triplicates into 96 well optical reaction plates and thermal denaturation of samples were performed on real time PCR cycler (LightCycler® 480 Instrument II—Roche, Base^1, Switzerland). The first derivative of the thermal denaturation curves was performed to calculate denaturing temperatures of STING-CDN complexes and STING apoproteins. The thermal shift for each CDN was calculated by subtracting the average denaturing temperature of STING apoprotein from the average denaturing temperature of STING CDN complex.
# [3] = molecular target: T2, AQ STING (truncated human STING G230A-R293Q allelic form) (Homo sapiens, UniProt Q86WV6, G230A/H232R/R293Q); test: Differential Scanning Fluorimetry with AQ STING; assay type: binding; conditions: read-out: DSF ΔTm (° C.) AQ STING
# T2 construct: truncated human WT STING or AQ STING (amino acid residues 140-343); 8xHis (N, cleaved yes); SUMO (N, cleaved yes); made in house; host or cells: E. coli Rosetta-gami B (DE3)
# T2 sequence (Q86WV6 140-343 G230A/H232R/R293Q): as the sequence (Q86WV6 140-343 H232R) above, with G91A, R154Q counted along it
# Description: as §1, §2, §3, §4
# [4] = thermal shift vs apoprotein, 150 μM CDN, 0.1 mg/ml STING protein, SYPRO Orange
EC50 [1] [nM],"ΔTm at 150 µM [2, 4] [°C]","ΔTm at 150 µM [3, 4] [°C]",Structure (SMILES),ΔTm at 150 µM [2] [°C],ΔTm at 150 µM [3] [°C]
> 50000,0,0.2,"Nc1ncnc2c1ncn2[C@@H]1O[C@@H]2COP(=O)(O)CO[C@H]3[C@H](O)[C@@H](COP(=O)(O)CO[C@H]2[C@@H]1O)O[C@H]3n1cnc2c(N)ncnc21 [Example 13, (1S,7R,9R,10S,11S,17R,19R,20R)-9,19-bis(6-amino-9H-purin-9-yl)-4,10,14,20-tetrahydroxy-2,5,8,12,15,18-hexaoxa-4λ^5,14λ^5-diphosphatricyclo[15.2.1.0^7,^11]icosane-4,14-dione]",–,–
40,15.8,18.7,"Nc1nc2c(ncn2[C@@H]2O[C@@H]3COP(=O)(O)CO[C@H]4[C@H](O)[C@H](n5cnc6c(N)ncnc65)O[C@@H]4COP(=O)(O)O[C@@H]2[C@@H]3O)c(=O)[nH]1 [Example 16, (1R,6R,8R,9S,10S,16R,18R,19R)-18-(2-amino-6-oxo-6,9-dihydro-1H-purin-9-yl)-8-(6-amino-9H-purin-9-yl)-3,9,13,19-tetrahydroxy-2,4,7,11,14,17-hexaoxa-3λ^5,13λ^5-diphosphatricyclo[14.2.1.0^6,^10]nonadecane-3,13-dione]",–,–
6,14.2,21,"Nc1nc2c(ncn2[C@@H]2O[C@@H]3COP(=O)(O)CO[C@H]4[C@@H](O)[C@H](n5cnc6c(N)ncnc65)O[C@@H]4COP(=O)(O)O[C@@H]2C3)c(=O)[nH]1 [Example 21, (1R,6R,8R,9R,10S,16S,18R)-18-(2-amino-6-oxo-6,9-dihydro-1H-purin-9-yl)-8-(6-amino-9H-purin-9-yl)-3,9,13-trihydroxy-2,4,7,11,14,17-hexaoxa-3λ^5,13λ^5-diphosphatricyclo[14.2.1.0^6,^10]nonadecane-3,13-dione]",–,–
15,9,11.1,"Nc1ncnc2c1ncn2[C@@H]1O[C@@H]2COP(=O)(O)O[C@@H]3[C@H](F)[C@@H](COP(=O)(O)CO[C@H]2[C@H]1F)O[C@H]3n1cnc2c(N)ncnc21 [Example 22, (1S,6R,8R,9R,10R,16R,18R,19R)-8,18-bis(6-amino-9H-purin-9-yl)-9,19-difluoro-3,13-dihydroxy-2,4,7,11,14,17-hexaoxa-3λ^5,13λ^5-diphosphatricyclo[14.2.1.0^6,^10]nonadecane-3,13-dione]",–,–
1200,1.4,8.8,"Nc1nc2c(ncn2[C@@H]2O[C@@H]3COP(=O)(O)O[C@@H]4[C@H](O)[C@@H](COP(=O)(O)CO[C@H]3[C@H]2O)O[C@H]4n2cnc3c(N)ncnc32)c(=O)[nH]1 [Example 2, (1R,6R,8R,9R,10S,16R,18R,19R)-8-(2-amino-6-oxo-6,9-dihydro-1H-purin-9-yl)-18-(6-amino-9H-purin-9-yl)-3,9,13,19-tetrahydroxy-2,4,7,11,14,17-hexaoxa-3λ^5,13λ^5-diphosphatricyclo[14.2.1.0^6,^10]nonadecane-3,13-dione]",–,–
3000,0.8,7.2,"Nc1nc2c(ncn2[C@@H]2O[C@@H]3COP(=O)(O)O[C@H]4[C@@H](O)[C@H](n5cnc6c(N)ncnc65)O[C@@H]4COP(=O)(O)CO[C@@H]2[C@@H]3O)c(=O)[nH]1 [Example 3, (1R,6S,7R,8R,10R,16R,17R,19R)-17-(2-amino-6-oxo-6,9-dihydro-1H-purin-9-yl)-8-(6-amino-9H-purin-9-yl)-4,7,13,19-tetrahydroxy-3,5,9,12,15,18-hexaoxa-4λ^5,13λ^5-diphosphatricyclo[14.2.1.0^6,^10]nonadecane-4,13-dione]",–,–
> 50000,0.1,1.2,"Nc1nc2c(ncn2[C@@H]2O[C@@H]3COP(=O)(O)CO[C@@H]4[C@H](O)[C@@H](COP(=O)(O)O[C@H]3[C@H]2O)O[C@H]4n2cnc3c(N)ncnc32)c(=O)[nH]1 [Example 6, (1R,6S,7R,8R,10R,16R,17R,19R)-8-(2-amino-6-oxo-6,9-dihydro-1H-purin-9-yl)-17-(6-amino-9H-purin-9-yl)-4,7,13,19-tetrahydroxy-3,5,9,12,15,18-hexaoxa-4λ^5,13λ^5-diphosphatricyclo[14.2.1.0^6,^10]nonadecane-4,13-dione]",–,–
80,6.7,14.2,"Nc1nc2c(ncn2[C@@H]2O[C@@H]3COP(=O)(O)O[C@@H]4[C@H](O)[C@@H](COP(=O)(O)CO[C@H]3[C@H]2F)O[C@H]4n2cnc3c(N)ncnc32)c(=O)[nH]1 [Example 14, (1R,6R,8R,9R,10R,16R,18R,19R)-8-(2-amino-6-oxo-6,9-dihydro-1H-purin-9-yl)-18-(6-amino-9H-purin-9-yl)-9-fluoro-3,13,19-trihydroxy-2,4,7,11,14,17-hexaoxa-3λ^5,13λ^5-diphosphatricyclo[14.2.1.0^6,^10]nonadecane-3,13-dione]",–,–

Structure (SMILES),EC50 [1] [nM],"ΔTm at 150 µM [2, 4] [°C]","ΔTm at 150 µM [3, 4] [°C]",ΔTm at 150 µM [2] [°C],ΔTm at 150 µM [3] [°C]
"Nc1nc2c(ncn2[C@@H]2O[C@@H]3COP(=O)(O)CO[C@@H]4[C@H](O)[C@@H](COP(=O)(O)CO[C@H]3[C@H]2O)O[C@H]4n2cnc3c(=O)[nH]c(N)nc32)c(=O)[nH]1 [Example 9, (1R,7R,9R,10R,11S,17R,19R,20R)-9,19-bis(2-amino-6-oxo-6,9-dihydro-1H-purin-9-yl)-4,10,14,20-tetrahydroxy-2,5,8,12,15,18-hexaoxa-4λ^5,14λ^5-diphosphatricyclo[15.2.1.0^7,^11]icosane-4,14-dione]",> 50000,–,–,0.3,1.1
